From PMC7402526, “An in vitro quantitative systems pharmacology approach for deconvolving mechanisms of drug-induced, multilineage cytopenias” (PLoS Computational Biology, 2020)

Columns and labels:
Assay type in all cases: cell-based, human
[1] = system: hematopoietic stem cells (HSCs); assay: Multi-lineage toxicity assay (MLTA), HSCs: concentration-response and QSP model fit; set-up: EmaxAP,HSC / EmaxT,HSC / Emax_drug_HSC: unitless, 0–2; ≤1 anti-proliferative, >1 adds cell killing; settings: for EC50 / EmaxT,HSC: QSP model parameter, sheet EC50_parameters, HSCs; for Emax_drug_HSC: parameter from QSP model fitting
Description: (§1) A custom optimized cytokine cocktail was developed using commercially available cytokines (Peprotech, New Jersey) to facilitate simultaneous multi-lineage differentiation and self-renewal of freeze-thawed primary human bone marrow-derived CD34+ cells in SFEM II media (cells and media from StemCell Technologies, Vancouver). Cultures were carried out in ultra-low attachment 96-well plates (Corning, New York) with test article added on day 0 and cultured at 37°C, 85% relative humidity, and 5% CO2 for six days before interrogating drug impact via 17-parameter flow cytometry.
(§2) The flow cytometry panel used to define hematopoietic subsets was composed of CD34-PECy7, CD90-PECY5, CD38-AF488, CD371-PE, CD45Ra-BV421, CD14-BV605, CD42b-AF647, CD10-PEDazzle594, CD235a-PerCPCy5.5 (BioLegend, California), CD15-BUV395, CD41a-APCH7, CD71-BV786 (BD Biosciences, California), and DAPI for dead cell exclusion (ThermoFisher, California). In short, Day 6 cells were harvested, FcR-blocked (FcR binding inhibitor, ThermoFisher), surface-stained, then analyzed in a buffer containing TruCount Control Beads using a BD LSR Fortessa SORP fitted with a high-throughput sampler (BD Biosciences, California). Data was analyzed in Diva 6.0.2 and exported to CSV where after all cell data was transformed to cell per mL then normalized on a per-donor basis to untreated control wells to determine drug impact.
(§3) Donor material was collected and cultured as described above. The number of replicate donor samples per drug ranged from 2–7 and varied per drug (S1 Table). Drug treatment was added at time 0 and cells were maintained in culture for 6 days. Concentrations tested for each drug compound are contained in S1 Table. Concentrations were selected to span a range that is clinically useful. Following treatment, cell populations were measured using flow cytometry. We extracted cell counts from flow cytometry data, normalized to bead counts, and corrected for well volume.
(§4) Each well was normalized to the average of six vehicle control wells. For drugs that were tested across multiple runs of the assay, vehicle-normalized donor data were pooled, and we used the average of these pooled data for further modeling. Normalized data used as model inputs are included in S1 Table.
(§5) We implemented drug effects using an Emax model for the drug’s effect on each cell type. The 13 maximum effect parameters (EmaxT,C) are unitless and can vary between 0 and 2 and where a subscript, C, represents one of the previously described 13 cell types. We adapted a traditional Emax model using the equations below. We interpreted EmaxT values less than or equal to one as anti-proliferative, and EmaxT values greater than one as indicating a cell-killing mechanism in addition to anti-proliferation. The relationships for these effects are included in the model using the following equations. Eq 2 describes the drug anti-proliferative effect in the net proliferation rate for a given cell type. Eq 3 describes the cell-killing EmaxCK effect.
(§6) Towards the estimation of mechanistic parameters, we considered different formulations: (a) weighting the objective value to prioritize fitting dead cells and (b) using regularization methodology to encourage a parsimonious solution. We assessed the contributions of these formulations using mean-squared error and goodness of fit plots for drugs with known mechanisms. […] Further, we used L1 regularization to penalize parameters […] to help identify a parsimonious set of parameters to explain drug effects.

[2] = system: multi-potent progenitors (MPPs); assay: MLTA, MPPs: concentration-response and QSP model fit; settings: for EC50 / EmaxT,MPP: QSP model parameter, sheet EC50_parameters, MPPs; for Emax_drug_MPP: parameter from QSP model fitting
Description: as §1, §2, §3, §4, §5, §6

[3] = system: granulocyte-macrophage progenitor (GMPs); assay: MLTA, GMPs: concentration-response and QSP model fit; settings: for EC50 / EmaxT,GMP: QSP model parameter, sheet EC50_parameters, GMPs; for Emax_drug_GMP: parameter from QSP model fitting
Description: as §1, §2, §3, §4, §5, §6

[4] = system: granulocyte progenitor (Gran-lin prog); assay: MLTA, GranP: concentration-response and QSP model fit; settings: for EmaxT,GranP / EC50: QSP model parameter, sheet EC50_parameters, GranP; for EC50: read-out: EC50GranP; for Emax_drug_GranP: parameter from QSP model fitting
Description: as §1, §2, §3, §4, §5, §6

granulocytes (Gran-lin) = assay: MLTA, Gran: concentration-response and QSP model fit; settings: for EC50 / EmaxT,Gran: QSP model parameter, sheet EC50_parameters, Gran; for Emax_drug_Gran: parameter from QSP model fitting
Description: as §1, §2, §3, §4, §5, §6

[5] = system: monocyte progenitors (monocyte prog); assay: MLTA, MonoP: concentration-response and QSP model fit; settings: for EmaxT,MonoP / EC50: QSP model parameter, sheet EC50_parameters, MonoP; for EC50: read-out: EC50MonoP; for Emax_drug_MonoP: parameter from QSP model fitting
Description: as §1, §2, §3, §4, §5, §6

monocytes (monocyte-lin) = assay: MLTA, Mono: concentration-response and QSP model fit; settings: for EC50 / EmaxT,Mono: QSP model parameter, sheet EC50_parameters, Mono; for Emax_drug_Mono: parameter from QSP model fitting
Description: as §1, §2, §3, §4, §5, §6

[6] = system: neutrophils (neutrophil-lin); assay: MLTA, Neut: concentration-response and QSP model fit; settings: for EC50 / EmaxT,Neut: QSP model parameter, sheet EC50_parameters, Neut; for Emax_drug_Neut: parameter from QSP model fitting
Description: as §1, §2, §3, §4, §5, §6

[7] = system: early erythroid cells (Eryth I); assay: MLTA, ErythI: concentration-response and QSP model fit; settings: for EmaxT,ErythroidI / EC50: QSP model parameter, sheet EC50_parameters, Erythroid I; for EC50: read-out: EC50ErythroidI; for Emax_drug_ErythroidI: parameter from QSP model fitting
Description: as §1, §2, §3, §4, §5, §6

[8] = system: late erythroid cells (Eryth II); assay: MLTA, ErythII: concentration-response and QSP model fit; settings: for EmaxT,ErythroidII / EC50: QSP model parameter, sheet EC50_parameters, Erythroid II; for EC50: read-out: EC50ErythroidII; for Emax_drug_ErythroidII: parameter from QSP model fitting
Description: as §1, §2, §3, §4, §5, §6

MK cells (MK-lin) = assay: MLTA, MK: concentration-response and QSP model fit; settings: for EC50 / EmaxT,MK: QSP model parameter, sheet EC50_parameters, MK; for Emax_drug_MK: parameter from QSP model fitting
Description: as §1, §2, §3, §4, §5, §6

[9] = system: lymphocyte progenitors (LymP); assay: MLTA, LymP: concentration-response and QSP model fit; settings: for EC50 / EmaxT,LymP: QSP model parameter, sheet EC50_parameters, LymP; for Emax_drug_LymP: parameter from QSP model fitting
Description: as §1, §2, §3, §4, §5, §6

B cells (B-lin) = assay: MLTA, B-lin: concentration-response and QSP model fit; settings: for EC50 / EmaxT,B: QSP model parameter, sheet EC50_parameters, B; for Emax_drug_B: parameter from QSP model fitting
Description: as §1, §2, §3, §4, §5, §6

Row | EC50 [2] | EC50 [3] | EC50 [4] | EC50 (granulocytes (Gran-lin)) | EC50 [5] | EC50 (monocytes (monocyte-lin)) | Structure (SMILES) | EC50 [1] | EmaxT,HSC [1] | Emax_drug_HSC [1] | EmaxT,MPP [2] | Emax_drug_MPP [2] | EmaxT,GMP [3] | Emax_drug_GMP [3] | EmaxT,GranP [4] | Emax_drug_GranP [4] | EmaxT,Gran (granulocytes (Gran-lin)) | Emax_drug_Gran (granulocytes (Gran-lin)) | EmaxT,MonoP [5] | Emax_drug_MonoP [5] | EmaxT,Mono (monocytes (monocyte-lin)) | other results
1 | 939 nM | 753 nM | 302 nM | 0.117 nM | 178 nM | 299 nM | O=c1[nH]cc(F)c(=O)[nH]1 [5-FU] | 1910 nM | 0.7982 | 0.7982 | 0.000528 | 0.000528 | 1.5687 | 1.5687 | 0.0162 | 0.0162 | 0.1807 | 0.1807 | 0.0016 | 0.0016 | 0.3048 | Emax_drug_Mono (monocytes (monocyte-lin)): 0.3048; EC50 [6]: 1030 nM; EmaxT,Neut [6]: 0.2668; Emax_drug_Neut [6]: 0.2668; EmaxT,ErythroidI [7]: 2.3324; EC50 [7]: 921 nM; Emax_drug_ErythroidI [7]: 2.3324; EmaxT,ErythroidII [8]: 0.0352; EC50 [8]: 1780 nM; Emax_drug_ErythroidII [8]: 0.0352; EC50 (MK cells (MK-lin)): 1110 nM; EmaxT,MK (MK cells (MK-lin)): 0.3220; Emax_drug_MK (MK cells (MK-lin)): 0.3220; EC50 [9]: 37 nM; EmaxT,LymP [9]: 0.0016; Emax_drug_LymP [9]: 0.0016; EC50 (B cells (B-lin)): 1090 nM; EmaxT,B (B cells (B-lin)): 0.8249; Emax_drug_B (B cells (B-lin)): 0.8249
2 | 1000 nM | 911 nM | 949 nM | 0.687 nM | 182 nM | 15.5 nM | Cc1c(-c2ccc(N3CCc4cccc(C(=O)Nc5nc6ccccc6s5)c4C3)nc2C(=O)O)cnn1CC12CC3CC(CC(C3)C1)C2 [A_1331852] | 1960 nM | 0.0828 | 0.0828 | 2.15e-6 | 2.15e-6 | 1.14e-6 | 1.14e-6 | 1.71e-6 | 1.71e-6 | 2.2504 | 2.2504 | 1.47e-5 | 1.47e-5 | 0.0610 | Emax_drug_Mono (monocytes (monocyte-lin)): 0.0610; EC50 [6]: 400 nM; EmaxT,Neut [6]: 1.51e-7; Emax_drug_Neut [6]: 1.51e-7; EmaxT,ErythroidI [7]: 2.5750; EC50 [7]: 32.3 nM; Emax_drug_ErythroidI [7]: 2.5750; EmaxT,ErythroidII [8]: 1.51e-6; EC50 [8]: 1160 nM; Emax_drug_ErythroidII [8]: 1.51e-6; EC50 (MK cells (MK-lin)): 24.1 nM; EmaxT,MK (MK cells (MK-lin)): 0.1880; Emax_drug_MK (MK cells (MK-lin)): 0.1880; EC50 [9]: 21.2 nM; EmaxT,LymP [9]: 1.6e-5; Emax_drug_LymP [9]: 1.6e-5; EC50 (B cells (B-lin)): 13.1 nM; EmaxT,B (B cells (B-lin)): 0.1187; Emax_drug_B (B cells (B-lin)): 0.1187
